Data published in patent US7722858B2, “Prevention and treatment of atherosclerosis by reducing carbamylation of LDL or the effects of carbamylated LDL” (Board of Trustees of the University of Arkansas, priority 2001, dated 2010).
Entries after “also recorded” stand apart in the source; their conditions may differ.

Experiments:
lens protein = conditions: cited from earlier work
rat lens = rat lens incubated in cyanate; cited from earlier work
carbamylation of LDL = test: In vitro inhibition of LDL carbamylation by potassium cyanate; format: biochemical, human; conditions: molar ratios of 1:1 to 16:1 (L-lysine:KOCN)
Method: CLDL (cLDL) was produced by chemical modification of nLDL. Native LDL was incubated under sterile conditions with potassium cyanate (Aldrich; Milwaukee, Wis.) (20 mg KOCN/mg nLDL) at 35° C. for 4 hours. Salt was removed by excessive dialysis against 0.15 M NaCl, 0.01% EDTA, pH 7.0 at 4° C. for 48 hours under sterile conditions. To obtain cLDL carbamylated to different degrees, various incubation periods, from 5 to 300 min, were used.
Assessment of carbamylation was made (a) on the basis of relative electrophoretic mobility in agarose gel, and (b) by the homocitrulline assay as described by Trepanier et al.. Briefly, 25 μg of LDL protein in PBS, pH 7.4 (50 μl volume) was incubated with 2 μg proteinase K and 1% SDS (v:v) at 37° C. for 2 hours. Then 250 μl of urea-nitrogen reagent (0.83 M sulfuric acid, 1.13 M orthophosphoric acid, 0.55 mM thiosemicarbazide, 2.6 mM cadmium sulfate), 50 μl 3% diacetyl monoxime in water was added and the mixture was incubated at 97° C. for 30 min. Samples were transferred into a 96-well plate and absorption of chromogen(s) was recorded at 530 nm. Homocitrulline (carbamyl lysine) standard curves (0-30 nmol) were generated using serial dilutions of a stock solution (200 μM) in PBS, pH 7.4. Results are expressed as nmol homocitrulline/mg LDL protein).

HCAECs = test: Flow cytometry of LDL-treated cells double-labeled with BrdU and 7-AAD; format: cell-based, human
Method: Flow cytometry of LDL-treated cells double-labeled with BrdU and 7-AAD (marker of total DNA) was performed to detect whether BrdU incorporation is linked to DNA synthesis or DNA repair, and whether mitosis is suppressed, and thus accumulation of polyploid cells is associated with the increase of BrdU incorporation.

In the case of `CC(C)Cc1ccc(C(C)C(=O)O)cc1` (stereo not shown) [ibuprofen], the “binding of cyanate to lens protein” value (lens protein) is given as “dose-dependent decrease”.
For `CC(=O)Oc1ccccc1C(=O)O` [aspirin], the “cyanate-induced increase in phase separation temperature” value (rat lens) is listed as “aspirin-preventable increase in phase separation temperature”.
With `N=C(N)NCCC[C@H](N)C(=O)O` [L-arginine] the “inhibition of carbamylation of LDL in vitro” value (from here on “inhibition”) (carbamylation of LDL) was “can inhibit carbamylation of LDL in vitro”.
In the case of `O=C(O)COc1nn(Cc2ccccc2)c2ccccc12` [Bendazac], the “carbamylation of lens protein” value (lens protein; present with cyanate) is listed as “inhibits the carbamylation of lens protein”.
In the case of `NCC(=O)O` [L-glycine], the “inhibition” value (carbamylation of LDL) is reported as “can inhibit carbamylation of LDL in vitro”.
For `NCCCC[C@H](N)C(=O)O` [L-lysine], the “inhibition” value (carbamylation of LDL) was “can inhibit carbamylation of LDL in vitro; also recorded: inhibition of LDL carbamylation”.
With `N#C[O-].[K+]` [Potassium cyanate, potassium cyanate] the “induction of proliferation or DNA synthesis” value (HCAECs) was “did not induce proliferation or DNA synthesis”.
